A short description of data set [1]: pH measurement of 0.1 M aqueous solutions. Format: physicochemical. The conditions noted are these: r.t.; for pH values compound: 0.1 M in millipore water, average of at least three measurements; for pH value / pH value of the reference material (non-loaded carrier salt): 0.1 M; for pH value: compound made via in-situ process. The source says:
For the pH measurements, a Seven2Go portable pH meter S2 (pH measuring-range: −2 to 20; resolution: 0.01) with an InLab Ultra Micro-ISM electrode (measuring range: pH −1 to pH 11; low temperature membrane glass type; ceramic diaphragm; reference system with Ag^+ ion trap by argenthal) as well as with an in-lab routine pH electrode (measuring range: pH 0 to pH 14; ceramic diaphragm; reference system with Ag^+ ion trap by argenthal) from Mettler-Toledo AG (Analytical, Switzerland) was used.
For sake of comparability, compounds of the same loading ratio n=2, which is 2:1 of the loaded carboxylic acid with respect to the carrier carboxylic acid, were selected for this analysis. […] The analytes were dissolved in millipore water, stirred for 5 minutes in an airtight vial to perform the pH measurements thereafter at r.t. All measurements were performed at 0.1 molar (M) concentration of the samples, which is 0.1 mol per liter (mol/L).
For sake of reliability, every result stated is the average of at least three single measurements. […] The numbers 1-73 (nr., first row) are used as an assignment for the 73 pairs, comprising the compound of invention (third row), the corresponding carrier carboxylic acid (fourth row) and the loaded carboxylic acid (fifth row), as used in the FIG. 6.

Data set [2] in a line: Thermal analysis (TGA/DTA). Format: physicochemical. The method, then:
Thermal analysis was carried out with a Linseis STA 1600 simultaneous thermal analyzer to determine simultaneous changes of weight (TGA signal) and caloric measurable transformations (DTA signal) in a temperature range between r.t. and 300° C.

As to `CC(=O)O.CC(=O)O.O=C1OC(C(O)CO)C([O-])=C1O.O=C1OC(C(O)CO)C([O-])=C1O.[Ca+2]` (stereo not shown) [CaAsc-HAc [2], calcium ascorbate with loaded acetic acid], in data set [1], the pH values compound came out at 4.42. On the same count and under the same terms, in the case of `CC(=O)O.CC(=O)O.O=C([O-])c1ccccc1.O=C([O-])c1ccccc1.[Ca+2]` [CaBen-HAc [2]] it was 4.46. The same measure, in the same setting: with `CC(=O)O.CC(=O)O.CC(=O)O.CC(=O)O.CC(=O)O.O=C([O-])C(O)C(O)C(=O)[O-].[Ca+2]` (stereo not shown) [CaT-HAc [5]] the figure was 3.84; with `NC(CC(=O)[O-])C(=O)[O-].O=C(O)CO.O=C(O)CO.[Ca+2]` (stereo not shown) [CaAsp-HGly [2]], 3.88; with `CC(=O)O.CC(=O)O.CC(=O)O.CC(=O)O.O=C1OC(C(O)CO)C([O-])=C1O.O=C1OC(C(O)CO)C([O-])=C1O.[Ca+2]` (stereo not shown) [CaAsc-HAc [4]], 4.22. The same measure, in the same setting: with `CC(=O)O.CC(O)C(=O)O.CCC(=O)O.O=C([O-])C(O)C(O)C(=O)[O-].[Ca+2]` (stereo not shown) [CaT-HAc-HPro-HLac [1,1,1]] the figure was 3.33.

Consider `CC(=O)O.CC(=O)O.O=C([O-])CCC(=O)[O-].[Mg+2]` [MgSuc-HAc [2]], for which the pH values compound in data set [1] is on record as 4.69. In data set [1], `CC(=O)O.CC(=O)O.O=C([O-])/C=C/C(=O)[O-].[Mg+2]` [MgFum-HAc [2]] came in with a pH values compound of 4.13. On to `CC(=O)O.CC(=O)O.O=C[O-].O=C[O-].[Ca+2]` [CaFo-HAc [2]], for which the pH values compound in data set [1] was found to be 4.74. Still for that read-out and setting: with `CC(=O)O.CC(=O)O.NC(CCC(=O)[O-])C(=O)[O-].[Ca+2]` (stereo not shown) [CaGlu-HAc [2]] the figure was 4.52; with `CC(=O)O.CC(O)C(=O)O.CCC(=O)O.O=C([O-])CC(O)C(=O)[O-].[Ca+2]` (stereo not shown) [CaMa-HAc-HProp-HLac [1,1,1]], 4.97; with `CC(O)C(=O)O.CC(O)C(=O)O.O=C([O-])/C=C/C(=O)[O-].[Mg+2]` [MgFum-HLac [2]], 3.69. `CC(=O)O.CC(=O)O.O=C([O-])CCC(=O)[O-].[Ca+2]` [CaSuc-HAc [2]] showed a pH values compound in data set [1] of 4.69.

In data set [1], `CC(O)C(=O)[O-].CC(O)C(=O)[O-].CCC(=O)O.CCC(=O)O.[Mg+2]` (stereo not shown) [MgLac-HProp [2]] yielded a pH values compound of 4.45.

In the case of `CCC(=O)O.CCC(=O)O.O=C([O-])CCC(=O)[O-].[Mg+2]` [MgSuc-HProp [2]], in data set [1], the pH values compound was found to be 5.18. Same read-out and setting: in the case of `CC(=O)O.CC(=O)O.CC(=O)O.CC(=O)O.CC(=O)O.CC(=O)O.O=C1OC(C(O)CO)C([O-])=C1O.O=C1OC(C(O)CO)C([O-])=C1O.[Ca+2]` (stereo not shown) [CaAsc-HAc [6]] it was 4.12; in that of `CCC(=O)O.CCC(=O)O.O=C([O-])CCC(=O)[O-].[Ca+2]` [CaSuc-HProp [2]], 5.01.

`CC(O)C(=O)O.CC(O)C(=O)O.CC(O)C(=O)[O-].CC(O)C(=O)[O-].[Ca+2]` (stereo not shown) [CaLac-HLac [2]] displayed a pH values compound in data set [1] of 3.45.

With `CC(O)C(=O)O.CC(O)C(=O)O.CC(O)C(=O)O.CC(O)C(=O)[O-].CC(O)C(=O)[O-].[Ca+2]` (stereo not shown) [CaLac-HLac [3]], the pH values compound in data set [1] is on record as 3.38.

Consider `CCC(=O)O.CCC(=O)O.O=C1OC(C(O)CO)C([O-])=C1O.O=C1OC(C(O)CO)C([O-])=C1O.[Ca+2]` (stereo not shown) [CaAsc-HProp [2], calcium ascorbate with loaded propionic acid], for which the pH values compound in data set [1] is reported as 4.88.

`CC(=O)O.CC(=O)O.O=C([O-])CC(O)C(=O)[O-].[Ca+2]` (stereo not shown) [CaMa-HAc [2]]: the pH values compound in data set [1] is on record as 4.53. On the same count and under the same terms, with `CCC(=O)O.CCC(=O)O.O=C([O-])/C=C/C(=O)[O-].[Mg+2]` [MgFum-HProp [2]] the figure was 4.24; with `O=C([O-])/C=C/C(=O)[O-].O=CO.O=CO.[Ca+2]` [CaFum-HFo [2]], 3.58. In data set [1], `CC(O)C(=O)O.CC(O)C(=O)O.CC(O)C(=O)[O-].CC(O)C(=O)[O-].[Mg+2]` (stereo not shown) [MgLac-HLac [2]] yielded a pH values compound of 3.31. Same read-out and setting: in the case of `CC(=O)O.CC(=O)O.CC(=O)O.O=C1OC(C(O)CO)C([O-])=C1O.O=C1OC(C(O)CO)C([O-])=C1O.[Ca+2]` (stereo not shown) [CaAsc-HAc [3], calcium ascorbate with loaded acetic acid] it was 4.22. Still for that read-out and setting: in the case of `CC(O)C(=O)O.CC(O)C(=O)O.CC(O)C(=O)O.CC(O)C(=O)O.NC(CCC(=O)[O-])C(=O)[O-].[Ca+2]` (stereo not shown) [CaGlu-HLac [4]] it was 3.60; in that of `CC(=O)O.CC(O)C(=O)[O-].CC(O)C(=O)[O-].CCC(=O)O.[Mg+2]` (stereo not shown) [MgLac-HAc-HProp [1,1]], 4.48.

Regarding `CC(=O)O.CC(=O)O.O=C[O-].O=C[O-].[Mg+2]` [MgFo-HAc [2], magnesium formate with loaded acetic acid], in data set [1], the pH values compound is listed as 5.10 and the pH value is listed as 5.10. In data set [1], `CC(O)C(=O)O.CC(O)C(=O)O.O=C[O-].O=C[O-].[Mg+2]` (stereo not shown) [MgFo-HLac [2]] registered a pH values compound of 3.72. Same read-out and setting: in the case of `CCC(=O)O.CCC(=O)O.O=C([O-])c1ccccc1.O=C([O-])c1ccccc1.[Ca+2]` [CaBen-HProp [2]] it was 4.64; in that of `CC(=O)O.CC(=O)O.CC(O)C(=O)[O-].CC(O)C(=O)[O-].[Ca+2]` (stereo not shown) [CaLac-HAc [2]], 4.58; in that of `O=CO.O=CO.O=C[O-].O=C[O-].[Mg+2]` [MgFo-HFo [2]], 6.54. Still for that read-out and setting: in the case of `CC(=O)[O-].CC(=O)[O-].CCC(=O)O.CCC(=O)O.[Mg+2]` [MgAc-HProp [2]] it was 5.51. In data set [1], `CCC(=O)O.CCC(=O)O.O=C[O-].O=C[O-].[Mg+2]` [MgFo-HProp [2], magnesium formate with loaded propionic acid] displayed a pH values compound of 4.84. Also, the “thermal stability of the carrier carboxylic acid salt” value in data set [2] is “up to 300 °C”. Further, the “water release on heating (TGA)” value in data set [2] (constant heating, 1° C. to 300° C., FIG. 4(A)) is reported as “no water is released”. The “total loss of weight (TGA)” value in data set [2] (dry sample, heating in the range of 125° C. to 200° C., 2 K/min, nitrogen) was found to be 24.4%.

In the case of `CC(=O)[O-].CC(=O)[O-].CCC(=O)O.CCC(=O)O.[Ca+2]` [CaAc-HProp [2]], the pH values compound in data set [1] came out at 5.16. Regarding `CC(O)C(=O)O.CC(O)C(=O)O.O=C([O-])/C=C/C(=O)[O-].[Ca+2]` [CaFum-HLac [2]], in data set [1], the pH values compound was found to be 3.68. In data set [1], `CCC(=O)O.CCC(=O)O.O=C([O-])CO.O=C([O-])CO.[Ca+2]` [CaGly-HProp [2]] returned a pH values compound of 4.63. Still for that read-out and setting: in the case of `O=C([O-])/C=C/C(=O)[O-].O=CO.O=CO.[Mg+2]` [MgFum-HFo [2]] it was 3.76. Take `CC(=O)O.CC(=O)O.CC(=O)O.CC(=O)O.O=C([O-])C(O)C(O)C(=O)[O-].[Ca+2]` (stereo not shown) [CaT-HAc [4], calcium tartrate with loaded acetic acid]: in data set [1], the pH values compound is listed as 3.33 and the pH value is given as 3.33. In the case of `CC(=O)O.CC(=O)O.O=C1OC(C(O)CO)C([O-])=C1O.O=C1OC(C(O)CO)C([O-])=C1O.[Mg+2]` (stereo not shown) [MgAsc-HAc [2]], in data set [1], the pH values compound was found to be 4.34. On to `O=C([O-])C(O)C(O)C(=O)[O-].[Ca+2]` (stereo not shown) [calcium tartrate, reference compound], for which the “pH value of the reference material (non-loaded carrier salt)” value in data set [1] is 7.33. On the same count and under the same terms, with `O=C[O-].O=C[O-].[Mg+2]` [magnesium formate, reference compound] the figure was 7.90. For `CC(O)C(=O)O.CC(O)C(=O)O.O=C([O-])C(O)C(O)C(=O)[O-].[Ca+2]` (stereo not shown) [CaT-HLac [2], calcium tartrate with loaded lactic acid], in data set [1], the pH values compound is listed as 3.27 and the pH value was determined as 3.27. In data set [1], `CC(=O)O.CC(=O)O.CC(=O)[O-].CC(=O)[O-].[Mg+2]` [MgAc-HAc [2]] had a pH values compound of 5.06. On the same count and under the same terms, in the case of `CC(=O)O.CC(=O)O.O=C([O-])/C=C/C(=O)[O-].[Ca+2]` [CaFum-HAc [2]] it was 4.17; in that of `CC(O)C(=O)O.CC(O)C(=O)O.CC(O)C(=O)O.CC(O)C(=O)O.CC(O)C(=O)[O-].CC(O)C(=O)[O-].[Ca+2]` (stereo not shown) [CaLac-HLac [4]], 3.30. On the same count and under the same terms, in the case of `CC(=O)O.CC(=O)O.CC(=O)O.CC(=O)[O-].CC(=O)[O-].[Ca+2]` [CaAc-HAc [3]] it was 4.62.

With `CCC(=O)O.CCC(=O)O.O=C([O-])/C=C/C(=O)[O-].[Ca+2]` [CaFum-HProp [2]], in data set [1], the pH values compound is listed as 4.27. Still for that read-out and setting: with `CCC(=O)O.CCC(=O)O.O=C([O-])CC(O)C(=O)[O-].[Ca+2]` (stereo not shown) [CaM-HProp [2]] the figure was 4.45; with `CCC(=O)O.CCC(=O)O.O=C([O-])C(O)C(O)C(=O)[O-].[Ca+2]` (stereo not shown) [CaT-HProp [2], calcium tartrate with loaded propionic acid], 3.71; with `CC(=O)O.CC(=O)O.CC(O)C(=O)[O-].CC(O)C(=O)[O-].[Mg+2]` (stereo not shown) [MgLac-HAc [2]], 4.43. Same read-out and setting: with `CC(=O)O.CC(=O)O.NC(CC(=O)[O-])C(=O)[O-].[Ca+2]` (stereo not shown) [CaAsp-HAc [2]] the figure was 4.42.

Source of the values: patent US12458581B2, “Carboxylic acid loaded salt carrier and the method for producing thereof” (priority 2021, dated 2025).
